Results published in paper PMC12249711, “Comprehensive Evaluation of 1H-Isoindole-1,3(2H)-Dione Derivatives: Pharmacokinetic Studies and Analgesic Potential in Various Pain Models” (International Journal of Molecular Sciences, 2025).

Legend:
mice = test: Formalin test; assay type: in vivo, Albino Swiss mice; conditions: for Reduction of pain response, inflammatory phase: phase II (15–30 min)
Procedure: The pain reaction was induced by intraplantar (i.pl.) injection of 20 μL of 2.5% formalin solution into the right hind paw of the mouse (n = 136). […] Time (in seconds) spent on licking or biting the injected hind paw in selected intervals, 0–5 min (neurogenic phase) and 15–30 min (inflammatory phase), was measured in each group and was an indicator of nociceptive behavior. The procedure was based on the method described by with some modifications by.

rats = test: Carrageenan-induced mechanical hyperalgesia (pain pressure threshold, Randall-Selitto); assay type: in vivo, Wistar rats; conditions: for Pain Threshold: 20 mg/kg i.p., mean ± SEM, rats; for Increase in pain threshold: 20 mg/kg, vs control
Procedure: The acute and local inflammation and paw edema was induced by intraplantar (i.pl.) injection of 0.1 mL of 1% carrageenan solution in PBS into the rat’s right hind paw, according to the modified method of Winter and Lence, as described previously; (n = 84). The paw volume was measured using the dislocation of the water column of the plethysmometer (Type a, 7140; Plethysmometer, Ugo Basile, Gemonio, Italy) before (V0) and at 1, 2, and 3 h (V1, V2, V3) after i.pl. carrageenan injection. […] Vehicle (1% Tween 80) was administered by the same route as the tested compounds.
Furthermore, we performed the pain pressure threshold test to assess heightened sensitivity to mechanical stimuli. The experiment was conducted based on the method described by Randall and Selitto [58], with certain modifications. An analgesymeter (AnalgesyMeter 37215, Ugo Basile, Gemonio, Italy) was used to gradually apply increasing pressure (measured in grams) to the plantar surface of the right hind paw of the rat until paw withdrawal occurred. At this point, the intensity of the applied force (in grams) was recorded as the withdrawal threshold. The maximum force intensity was set at 250 g. Carrageenan induces a decrease in the nociceptive threshold in response to a mechanical stimulus, a condition referred to as hyperalgesia. For each rat, paw withdrawal thresholds were recorded both before (0 h) and 1, 2, and 3 h after carrageenan administration (i.e., 3.5 h after intraperitoneal pretreatment with the tested compounds). […] The analgesic effect of the tested compounds was assessed in comparison with the control group (1% Tween 80); the injection was performed intraperitoneally within 30 min of carrageenan administration. An analgesic effect occurs when the compound administered produces a pain response with greater pressure than the control group.

## CC(C(=O)O)c1cccc(C(=O)c2ccccc2)c1 (stereo not drawn) [Ketoprofen, ketoprofen, reference compound]
mice; phase I (0–5 min), 20 mg/kg i.p., vs vehicle
  Reduction of pain reaction (licking duration), neurogenic phase: 59.7%
mice; phase I, ketoprofen doses other than 20 mg/kg
  Reduction of neurogenic pain, neurogenic phase: did not show a statistically significant reduction
mice; 10 mg/kg i.p., vs vehicle
  Reduction of pain response, inflammatory phase: 23.2%
mice; 20 mg/kg i.p., vs vehicle
  Reduction of pain response, inflammatory phase: 59.9%
mice; 50 mg/kg, vs vehicle
  Reduction of pain response, inflammatory phase: 71.8%
rats; 0 h (before carrageenan)
  Pain Threshold: 130 ± 2.9 g
rats; 1 h after carrageenan
  Pain Threshold: 155.8 ± 5.2 g
rats; 2 h after carrageenan
  Pain Threshold: 187.5 ± 9.0 g
rats; 3 h after carrageenan
  Pain Threshold: 178.3 ± 11.7 g
rats; 1 h
  Increase in pain threshold: 19.8%
rats; 2 h
  Increase in pain threshold: 38%
rats; 3 h
  Increase in pain threshold: 33.8%
